# From patent US9487554B2, “Estra-1,3,5(10),16-tetraene-3-carboxamide derivatives, processes for their preparation, pharmaceutical preparations comprising them and their use for preparing medicaments” (BAYER INTELLECTUAL PROPERTY GmbH, priority 2011, dated 2016)
# “And” between values parts separate entries of the source, which are not always exact repeats. Identical values can stand only once.
# Biological target: recombinant human AKR1C3 (Homo sapiens (Human), UniProt P42330)
# Experiment: AKR1C3 enzyme inhibition assay (Coumberone to Coumberol fluorescence)
# Type: biochemical
# Conditions: individual experimental determinations
# Procedure: The AKR1C3-inhibitory activity of the substances of the present invention was measured in the AKR1C3 assay described in the paragraphs below.
# Essentially, the enzyme activity is measured by quantification of the Coumberol from Coumberone (Halim, M., Yee, D. J., and Sames, D., J. AM. CHEM. SOC. 130, 14123-14128 (2008) and Yee, D. J., Balsanek, V., Bauman, D. R., Penning, T. M., and Sames, D., Proc. Natl. Acad. Sci. USA 103, 13304-13309 (2006)). In this test, the increase of the highly fluorescent Coumberol by NADPH—(nicotinamide adenine dinucleotide phosphate)-dependent reduction of the non-fluorescent Coumberone by AKR1C3 can be determined.
# The enzyme used was recombinant human AKR1C3 (Aldo-keto reductase family 1 member C3) (GenBank Accession No. NM_003739). This was expressed in E. coli as GST (glutathione S transferase) fusion protein and purified by glutathione Sepharose affinity chromatography. The GST was removed by digestion with thrombin and subsequent size exclusion chromatography (Dufort, I., Rheault, P., Huang, X F., Soucy, P., and Luu-The, V., Endocrinology 140, 568-574 (1999)).
# For the assay, 50 nl of a 100-fold concentrated solution of the test substance in DMSO were pipetted into a black low-volume 384-well microtiter plate (Greiner Bio-One, Frickenhausen, Germany), 2.0 μl of a solution of AKR1C3 in assay buffer [50 mM potassium phosphate buffer pH 7, 1 mM DTT, 0.0022% (w/v) Pluronic F-127, 0.01% BSA (w/v) and protease inhibitor cocktail (Complete, EDTA-free Protease Inhibitor Cocktail from Roche)] were added and the mixture was incubated for 15 min to allow pre-binding of the substances to the enzyme prior to the enzyme reaction. The enzyme reaction was then started by addition of 3 μl of a solution of NADPH (16.7 μM→final concentration in 5 μl of assay volume is 10 μM) and Coumberone (0.5 μM→final concentration in 5 μl of assay volume is 0.3 μM) in assay buffer, and the resulting mixture was incubated at 22° C. for the reaction time of 90 min. The concentration of the AKR1C3 was adapted to the respective activity of the enzyme preparation and adjusted such that the assay was carried out in the linear range. Typical concentrations were in the region of 1 nM. The reaction was stopped by addition of 5 μl of a stop solution consisting of the inhibitor EM-1404 [F. Labrie et al. U.S. Pat. No. 6,541,463, 2003] (2 μM→final concentration in […] is 1 μM). The fluorescence of the Coumberole was then measured at 520 nm (excitation at 380 nm) using a suitable measuring instrument (Pherastar from BMG Labtechnologies). The intensity of the fluorescence was used as a measure of the amount of Coumberole formed and thus of the enzyme activity of AKR1C3. The data were normalized (enzyme reaction without inhibitor=0% inhibition; all other assay components, but no enzyme=100% inhibition).
# Sequence of recombinant human AKR1C3 (P42330 whole entry): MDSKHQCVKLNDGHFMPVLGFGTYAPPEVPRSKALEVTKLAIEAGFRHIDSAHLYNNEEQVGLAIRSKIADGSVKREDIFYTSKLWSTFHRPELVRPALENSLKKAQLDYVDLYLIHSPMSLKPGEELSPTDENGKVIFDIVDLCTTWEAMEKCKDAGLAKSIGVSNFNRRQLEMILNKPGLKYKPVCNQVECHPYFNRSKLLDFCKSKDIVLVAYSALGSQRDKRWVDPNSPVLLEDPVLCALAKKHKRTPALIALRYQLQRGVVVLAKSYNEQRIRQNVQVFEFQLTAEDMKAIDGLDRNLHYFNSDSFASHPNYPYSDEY
row,Compound,IC50
1,"C[C@]12CC[C@@H]3c4ccc(C(=O)N5CCC(C(=O)O)CC5)cc4CC[C@H]3[C@@H]1CC=C2c1cncc(F)c1 [Example 6, 1-{[17-(5-Fluoropyridin-3-yl)estra-1,3,5(10),16-tetraen-3-yl]carbonyl}piperidine-4-carboxylic acid]",21.1 nM and 21 nM
2,"C[C@@H](CC(=O)O)NC(=O)c1ccc2c(c1)CC[C@@H]1[C@@H]2CC[C@]2(C)C(c3cncc(F)c3)=CC[C@@H]12 [Example 12, (S)-3-({[17-(5-Fluoropyridin-3-yl)estra-1,3,5(10),16-tetraen-3-yl]carbonyl}amino)-butanoic acid]",1.2 nM and 1.7 nM
3,"CN(CCC(=O)O)C(=O)c1ccc2c(c1)CC[C@H]1[C@@H]3[C@@H](O)C=C(c4cncc(F)c4)[C@@]3(C)CC[C@H]21 [Example 26, N-{[17-(5-Fluoropyridin-3-yl)-15α-hydroxyestra-1,3,5(10),16-tetraen-3-yl]carbonyl}-N-methyl-β-alanine]",11 nM and 16.6 nM
4,"Cc1cc(C2=CC[C@H]3[C@@H]4CCc5cc(C(=O)N(C)CCC(=O)O)ccc5[C@H]4CC[C@]23C)cnn1 [Example 28, N-Methyl-N-{[17-(6-methylpyridazin-4-yl)estra-1,3,5(10),16-tetraen-3-yl]carbonyl}-β-alanine]",0.5 nM
5,"C[C@]12C[C@H](F)[C@@H]3c4ccc(C(=O)NCCCC(=O)O)cc4CC[C@H]3[C@@H]1CC=C2c1cncc(F)c1 [Example 25, 4-({[11β-Fluoro-17-(5-fluoropyridin-3-yl)estra-1,3,5(10),16-tetraen-3-yl]carbonyl}-amino)butanoic acid]",29.1 nM and 16.8 nM
6,"C[C@]12CC[C@@H]3c4ccc(C(=O)NCCC(=O)O)cc4CC[C@H]3[C@@H]1CC=C2c1cncc(C(F)(F)F)c1 [Example 21, N-({17-[5-(Trifluoromethyl)pyridin-3-yl]estra-1,3,5(10),16-tetraen-3-yl}carbonyl)-β-alanine]",8.5 nM
7,"C[C@]12CC[C@@H]3c4ccc(C(=O)NCCCC(=O)O)cc4CC[C@H]3[C@@H]1CC=C2c1cncc(F)c1 [Example 8, 4-({[17-(5-Fluoropyridin-3-yl)estra-1,3,5(10),16-tetraen-3-yl]carbonyl}amino)butanoic acid]",8.5 nM and 6.8 nM
8,"CN(CCC(=O)O)C(=O)c1ccc2c(c1)CC[C@@H]1[C@@H]2CC[C@]2(C)C(c3cncc(C(F)(F)F)c3)=CC[C@@H]12 [Example 22, N-Methyl-N-({17-[5-(trifluoromethyl)pyridin-3-yl]estra-1,3,5(10),16-tetraen-3-yl}carbonyl)-β-alanine]",4.2 nM
9,"COc1cncc(C2=CC[C@H]3[C@@H]4CCc5cc(C(=O)N(C)CCC(=O)O)ccc5[C@H]4CC[C@]23C)c1 [Example 16, N-{[17-(5-Methoxypyridin-3-yl)estra-1,3,5(10),16-tetraen-3-yl]carbonyl}-N-methyl-β-alanine]",4.4 nM and 6.9 nM
10,"CN(CCC(=O)O)C(=O)c1ccc2c(c1)CC[C@@H]1[C@@H]2CC[C@]2(C)C(c3cncnc3)=CC[C@@H]12 [Example 19, N-Methyl-N-{[17-(pyrimidin-5-yl)estra-1,3,5(10),16-tetraen-3-yl]carbonyl}-β-alanine]",26.7 nM (2×) and 17.8 nM
11,"CN(CCC(=O)O)C(=O)c1ccc2c(c1)CC[C@@H]1[C@@H]2CC[C@]2(C)C(c3cccnc3)=CC[C@@H]12 [Example 29, N-Methyl-N-{[17-(pyridin-3-yl)estra-1,3,5(10),16-tetraen-3-yl]carbonyl}-β-alanine]",2.5 nM
12,"C[C@]12CC[C@@H]3c4ccc(C(=O)N5CCC[C@H]5C(=O)O)cc4CC[C@H]3[C@@H]1CC=C2c1cncc(F)c1 [Example 23, N-{[17-(5-Fluoropyridin-3-yl)estra-1,3,5(10),16-tetraen-3-yl]carbonyl}-L-proline]",1.9 nM
13,"C[C@H](CC(=O)O)NC(=O)c1ccc2c(c1)CC[C@@H]1[C@@H]2CC[C@]2(C)C(c3cncc(F)c3)=CC[C@@H]12 [Example 13, (R)-3-({[17-(5-Fluoropyridin-3-yl)estra-1,3,5(10),16-tetraen-3-yl]carbonyl}amino)-butanoic acid]",0.8 nM and 1.8 nM
14,"C[C@]12CC[C@@H]3c4ccc(C(=O)N5CCC[C@@H]5C(=O)O)cc4CC[C@H]3[C@@H]1CC=C2c1cncc(F)c1 [Example 24, N-{[17-(5-Fluoropyridin-3-yl)estra-1,3,5(10),16-tetraen-3-yl]carbonyl}-D-proline]",5.3 nM
15,"C[C@]12CC[C@@H]3c4ccc(C(=O)NCC5(C(=O)O)CCOCC5)cc4CC[C@H]3[C@@H]1CC=C2c1cncc(F)c1 [Example 1, 4-[({[17-(5-Fluoropyridin-3-yl)estra-1,3,5(10),16-tetraen-3-yl]carbonyl}amino)methyl]-3,4,5,6-tetrahydro-2H-pyran-4-carboxylic acid]",1.4 nM and 1.9 nM
16,"COc1cncc(C2=CC[C@H]3[C@@H]4CCc5cc(C(=O)NCC(C)(C)C(=O)O)ccc5[C@H]4CC[C@]23C)c1 [Example 14, 3-({[17-(5-Methoxypyridin-3-yl)estra-1,3,5(10),16-tetraen-3-yl]carbonyl}amino)-2,2-dimethylpropanoic acid]",9.8 nM and 17.9 nM
17,"COc1cncc(C2=CC[C@H]3[C@@H]4CCc5cc(C(=O)NCCCC(=O)O)ccc5[C@H]4CC[C@]23C)c1 [Example 30, 4-({[17-(5-Methoxypyridin-3-yl)estra-1,3,5(10),16-tetraen-3-yl]carbonyl}amino)butanoic acid]",7.3 nM and 11.2 nM
18,"C[C@]12CC[C@@H]3c4ccc(C(=O)NCC5(C(=O)O)CCCC5)cc4CC[C@H]3[C@@H]1CC=C2c1cncc(F)c1 [Example 4, 1-[({[17-(5-Fluoropyridin-3-yl)estra-1,3,5(10),16-tetraen-3-yl]carbonyl}amino)methyl]-cyclopentane-1-carboxylic acid]",13.9 nM and 8.9 nM
19,"C[C@]12CC[C@@H]3c4ccc(C(=O)N[C@@H]5CCC[C@@H]5C(=O)O)cc4CC[C@H]3[C@@H]1CC=C2c1cncc(F)c1 (relative stereo) [Example 11, (1R*,2S*)-2-({[17-(5-Fluoropyridin-3-yl)estra-1,3,5(10),16-tetraen-3-yl]carbonyl}amino)-cyclopentane-1-carboxylic acid]",2.2 nM and 1.8 nM
20,"CN(CCC(=O)O)C(=O)c1ccc2c(c1)CC[C@H]1[C@@H]3[C@H](O)C=C(c4cncc(F)c4)[C@@]3(C)CC[C@H]21 [Example 27, N-{[17-(5-Fluoropyridin-3-yl)-15β-hydroxyestra-1,3,5(10),16-tetraen-3-yl]carbonyl}-N-methyl-β-alanine]",35.3 nM and 24.2 nM
21,"C[C@]12CC[C@@H]3c4ccc(C(=O)NCCCC(=O)O)cc4CC[C@H]3[C@@H]1CC=C2c1cncnc1 [Example 18, 4-({[17-(Pyrimidin-5-yl)estra-1,3,5(10),16-tetraen-3-yl]carbonyl}amino)butanoic acid]",23.5 nM and 31.8 nM
22,"CC(C)(CNC(=O)c1ccc2c(c1)CC[C@@H]1[C@@H]2CC[C@]2(C)C(c3cncnc3)=CC[C@@H]12)C(=O)O [Example 20, 2,2-Dimethyl-3-({[17-(pyrimidin-5-yl)estra-1,3,5(10),16-tetraen-3-yl]carbonyl}amino)-propanoic acid]",45.5 nM and 46.3 nM
23,"C[C@]12CC[C@@H]3c4ccc(C(=O)NCCC(=O)O)cc4CC[C@H]3[C@@H]1CC=C2c1cncnc1 [Example 17, N-{[17-(Pyrimidin-5-yl)estra-1,3,5(10),16-tetraen-3-yl]carbonyl}-β-alanine]",29.7 nM and 37.6 nM
24,"COc1cncc(C2=CC[C@H]3[C@@H]4CCc5cc(C(=O)NCCC(=O)O)ccc5[C@H]4CC[C@]23C)c1 [Example 15, N-{[17-(5-Methoxypyridin-3-yl)estra-1,3,5(10),16-tetraen-3-yl]carbonyl}-β-alanine]",6.9 nM and 7.2 nM
25,"CC(C)(NC(=O)c1ccc2c(c1)CC[C@@H]1[C@@H]2CC[C@]2(C)C(c3cncc(F)c3)=CC[C@@H]12)C(=O)O [Example 7, N-{[17-(5-Fluoropyridin-3-yl)estra-1,3,5(10),16-tetraen-3-yl]carbonyl}-2-methylalanine]",8.5 nM and 9.6 nM
